One block for each compound: values may come before it. Calls of active or inactive are those of the source. The calls are words filed in the database; no cut-off is given here.
Assays:
[1] = biological target: 2-amino-3-carboxymuconate-6-semialdehyde decarboxylase (Homo sapiens) (UniProt Q8TDX5); assay: Inhibition of ACMSD in human primary hepatocytes assessed as increase in NAD concentration at 0.5 uM following compound replacement every 24 hrs by LC-MS/MS analysis; assay type: cell-based
HepG2 = assay: Cytotoxicity against human HepG2 cells assessed as reduction in cell viability at 0.01 to 300 uM incubated for 4 hrs by LDH release assay; assay type: cell-based; settings: hepg2, 4 h
[2] = biological target: 2-amino-3-carboxymuconate-6-semialdehyde decarboxylase (Homo sapiens) (UniProt Q8TDX5); assay: Inhibition of ACMSD in human primary hepatocytes assessed as increase in NAD concentration at 5 uM following compound replacement every 24 hrs by LC-MS/MS analysis; assay type: cell-based
[3] = Cytotoxicity in mouse AML-12 cells assessed as reduction inc ell viability at 10 nM to 300 uM incubated for 4 hrs by LDH release assay; assay type: cell-based
MDCK [4] = assay: Inhibition of cisplatin-induced apoptosis in MDCK cells assessed as reduction in caspase 3/7 activity at 30 to 125 uM pre-incubated for 1 hr before cisplatin challenge for 16 hrs by luminescence based assay; assay type: functional, cell-based; settings: Canis lupus familiaris
MDCK [5] = assay: Inhibition of cisplatin-induced apoptosis in MDCK cells assessed as reduction in caspase 3/7 activity at 30 uM pre-incubated for 1 hr before cisplatin challenge for 16 hrs by luminescence based assay relative to control; assay type: functional; settings: Canis lupus familiaris
MDCK [6] = assay: Inhibition of cisplatin-induced apoptosis in MDCK cells assessed as reduction in caspase 3/7 activity at 100 uM pre-incubated for 1 hr before cisplatin challenge for 16 hrs by luminescence based assay; assay type: functional, cell-based; settings: Canis lupus familiaris
MDCK [7] = assay: Inhibition of cisplatin-induced apoptosis in MDCK cells assessed as reduction in caspase 3/7 activity at 100 uM pre-incubated for 1 hr before cisplatin challenge for 16 hrs by luminescence based assay relative to control; assay type: functional; settings: Canis lupus familiaris
[8] = biological target: 2-amino-3-carboxymuconate-6-semialdehyde decarboxylase (Mus musculus) (UniProt Q8R519); assay: Inhibition of ACMSD in C57BL/6J mouse primary hepatocytes assessed as increase in Pgc1a mRNA expression incubated for 24 hrs by RT-qPCR analysis; assay type: cell-based
[9] = biological target: 2-amino-3-carboxymuconate-6-semialdehyde decarboxylase (Mus musculus) (UniProt Q8R519); assay: Inhibition of ACMSD in mouse AML12 cells assessed as induction of SOD2 activity incubated for 24 hrs; assay type: cell-based
[10] = biological target: 2-amino-3-carboxymuconate-6-semialdehyde decarboxylase (Mus musculus) (UniProt Q8R519); assay: Inhibition of ACMSD in C57BL/6J mouse primary hepatocytes assessed as increase in Sod1 mRNA expression incubated for 24 hrs by RT-qPCR analysis; assay type: cell-based
[11] = biological target: 2-amino-3-carboxymuconate-6-semialdehyde decarboxylase (Homo sapiens) (UniProt Q8TDX5); assay: Inhibition of ACMSD in human primary hepatocytes assessed as increase in NAD\"\" concentration following compound replacement every 24 hrs by LC-MS/MS analysis relative to control; assay type: cell-based
[12] = biological target: 2-amino-3-carboxymuconate-6-semialdehyde decarboxylase (Mus musculus) (UniProt Q8R519); assay: Inhibition of ACMSD in mouse AML12 cells assessed as reduction in FoxO1 phosphorylation at Ser256 residue incubated for 24 hrs; assay type: cell-based
[13] = biological target: 2-amino-3-carboxymuconate-6-semialdehyde decarboxylase (Mus musculus) (UniProt Q8R519); assay: Inhibition of ACMSD in C57BL/6J mouse primary hepatocytes assessed as increase in Sod2 mRNA expression incubated for 24 hrs by RT-qPCR analysis; assay type: cell-based
[14] = biological target: 2-amino-3-carboxymuconate-6-semialdehyde decarboxylase (Mus musculus) (UniProt Q8R519); assay: Inhibition of ACMSD in C57BL/6J mouse primary hepatocytes assessed as induction of SOD2 activity incubated for 24 hrs; assay type: cell-based
[15] = biological target: 2-amino-3-carboxymuconate-6-semialdehyde decarboxylase (Mus musculus) (UniProt Q8R519); assay: Inhibition of ACMSD in mouse AML12 cells assessed as increase in Sod2 mRNA expression incubated for 24 hrs by RT-qPCR analysis; assay type: cell-based
[16] = biological target: 2-amino-3-carboxymuconate-6-semialdehyde decarboxylase (Homo sapiens) (UniProt Q8TDX5); assay: Inhibition of ACMSD in human primary hepatocytes assessed as increase in NAD concentration at 250 uM following compound replacement every 24 hrs by LC-MS/MS analysis; assay type: cell-based

Sequence of 2-amino-3-carboxymuconate-6-semialdehyde decarboxylase (Homo sapiens) (Q8TDX5 whole entry, looked up): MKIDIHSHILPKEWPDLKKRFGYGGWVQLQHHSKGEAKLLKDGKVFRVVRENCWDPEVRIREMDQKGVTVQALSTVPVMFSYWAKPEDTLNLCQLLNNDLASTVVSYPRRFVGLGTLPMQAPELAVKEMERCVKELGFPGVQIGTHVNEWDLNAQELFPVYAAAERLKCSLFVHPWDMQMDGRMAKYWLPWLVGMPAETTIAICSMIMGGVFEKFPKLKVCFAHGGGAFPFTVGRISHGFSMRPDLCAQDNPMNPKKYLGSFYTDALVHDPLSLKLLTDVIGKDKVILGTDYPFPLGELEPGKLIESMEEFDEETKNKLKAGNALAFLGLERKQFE
Sequence of 2-amino-3-carboxymuconate-6-semialdehyde decarboxylase (Mus musculus) (Q8R519 whole entry): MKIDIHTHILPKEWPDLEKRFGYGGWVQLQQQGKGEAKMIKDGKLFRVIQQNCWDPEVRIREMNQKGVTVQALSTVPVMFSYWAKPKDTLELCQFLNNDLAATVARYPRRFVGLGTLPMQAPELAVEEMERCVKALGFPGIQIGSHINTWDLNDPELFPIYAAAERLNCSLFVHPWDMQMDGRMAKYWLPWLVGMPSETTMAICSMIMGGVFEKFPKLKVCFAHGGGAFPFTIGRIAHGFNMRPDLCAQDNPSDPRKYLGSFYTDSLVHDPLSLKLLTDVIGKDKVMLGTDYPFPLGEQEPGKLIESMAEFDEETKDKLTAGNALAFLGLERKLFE

inhibition [1]: Active
inhibition [2]: Active
Compound: N#Cc1c(-c2cccs2)nc(SCc2cccc(C(=O)O)c2)[nH]c1=O
Activity (HepG2): Non-Toxic
Activity [3]: Non-Toxic

Compound: N#Cc1c(-c2cccs2)nc(SCc2cccc(-c3nn[nH]n3)c2)[nH]c1=O
Activity (HepG2): Non-Toxic
Activity [3]: Non-Toxic

Compound: N#Cc1c(-c2cccs2)nc(SCc2cccc(CC(=O)O)c2)[nH]c1=O
inhibition (MDCK [4]): Active
inhibition at 30 µM (MDCK [5]): 29%
inhibition (MDCK [6]): Active
inhibition at 100 µM (MDCK [7]): 75%

inhibition [8]: Dose-dependent effect
inhibition [9]: Dose-dependent effect
inhibition [10]: inactive
inhibition [11]: Dose-dependent effect
inhibition [12]: Dose-dependent effect
inhibition [13]: Dose-dependent effect
inhibition [14]: Dose-dependent effect
Compound: N#Cc1c(-c2cccs2)nc(SCc2cccc(-c3nnn[nH]3)c2)[nH]c1=O

Compound: N#Cc1c(-c2ccc(Cl)cc2)nc(SCc2ccc(C(=O)O)cc2)[nH]c1=O
Activity (HepG2): Non-Toxic
Activity [3]: Non-Toxic

Compound: N#Cc1c(-c2cccs2)nc(SCc2cccc(-c3noc(=O)[nH]3)c2)[nH]c1=O
Activity (HepG2): Non-Toxic
Activity [3]: Non-Toxic

Compound: N#Cc1c(-c2nccs2)nc(SCc2cccc(C(=O)O)c2)[nH]c1=O
Activity (HepG2): Non-Toxic
Activity [3]: Non-Toxic

Compound: O=C(O)c1cccc(CSc2nc(-c3ccccc3)c(Br)c(=O)[nH]2)c1
Activity (HepG2): Non-Toxic
Activity [3]: Non-Toxic

inhibition [9]: Dose-dependent effect
inhibition [1]: Active
inhibition [12]: Dose-dependent effect
inhibition [15]: Dose-dependent effect
inhibition [14]: Dose-dependent effect
Compound: N#Cc1c(-c2ccccc2)nc(SCc2cccc(C(=O)O)c2)[nH]c1=O
Activity (HepG2): Non-Toxic
Activity [3]: Non-Toxic

Compound: CCCCC(CC)COC(=O)c1ccccc1C(=O)O (stereo not drawn)
inhibition [16]: Active

Reference: ChEMBL document CHEMBL4417632, “Inhibitors of alpha-amino-beta-carboxymuconic acid semialdehyde decarboxylase” (2017)
